# Results as given in PubChem BioAssay (NCI).
#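 The compound was tested at five concentrations on cells cultured in 96-well plates, with a 48-hour exposure period. GI50 = concentration required for 50% inhibition of growth. At the TGI there is no net growth.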
# Assays:
# Test in all cases: NCI tumour cell line growth inhibition, 48 h
# 786-0 renal = test system: 786-0 renal
# A498 renal = test system: A498 renal
# A549 NSCLC = test system: A549 NSCLC
# ACHN renal = test system: ACHN renal
# BT-549 breast = test system: BT-549 breast
# CAKI-1 renal = test system: CAKI-1 renal
# COLO 205 colon = test system: COLO 205 colon
# DU-145 prostate = test system: DU-145 prostate
# HCC-2998 colon = test system: HCC-2998 colon
# HCT-116 colon = test system: HCT-116 colon
# HCT-15 colon = test system: HCT-15 colon
# HL-60(TB) leukemia = test system: HL-60(TB) leukemia
# HOP-62 NSCLC = test system: HOP-62 NSCLC
# HOP-92 NSCLC = test system: HOP-92 NSCLC
# HS 578T breast = test system: HS 578T breast
# HT29 colon = test system: HT29 colon
# IGROV1 ovarian = test system: IGROV1 ovarian
# K-562 leukemia = test system: K-562 leukemia
# KM12 colon = test system: KM12 colon
# LOX IMVI melanoma = test system: LOX IMVI melanoma
# M14 melanoma = test system: M14 melanoma
# MALME-3M melanoma = test system: MALME-3M melanoma
# MCF7 breast = test system: MCF7 breast
# MDA-MB-231 breast = test system: MDA-MB-231 breast
# MDA-MB-435 = test system: MDA-MB-435
# MOLT-4 leukemia = test system: MOLT-4 leukemia
# NCI-H226 lung = test system: NCI-H226 lung
# NCI-H23 lung = test system: NCI-H23 lung
# NCI-H460 lung = test system: NCI-H460 lung
# NCI/ADR-RES ovarian = test system: NCI/ADR-RES ovarian
# OVCAR-3 ovarian = test system: OVCAR-3 ovarian
# OVCAR-4 ovarian = test system: OVCAR-4 ovarian
# OVCAR-5 ovarian = test system: OVCAR-5 ovarian
# OVCAR-8 ovarian = test system: OVCAR-8 ovarian
# PC-3 prostate = test system: PC-3 prostate
# RPMI-8226 leukemia = test system: RPMI-8226 leukemia
# SF-268 CNS = test system: SF-268 CNS
# SF-295 CNS = test system: SF-295 CNS
# SF-539 CNS = test system: SF-539 CNS
# SK-MEL-2 melanoma = test system: SK-MEL-2 melanoma
# SK-MEL-28 melanoma = test system: SK-MEL-28 melanoma
# SK-MEL-5 melanoma = test system: SK-MEL-5 melanoma
# SK-OV-3 ovarian = test system: SK-OV-3 ovarian
# SN12C renal = test system: SN12C renal
# SNB-19 CNS = test system: SNB-19 CNS
# SNB-75 CNS = test system: SNB-75 CNS
# SR leukemia = test system: SR leukemia
# SW-620 colon = test system: SW-620 colon
# T-47D breast = test system: T-47D breast
# TK-10 renal = test system: TK-10 renal
# U251 CNS = test system: U251 CNS
# UACC-257 melanoma = test system: UACC-257 melanoma
# UACC-62 melanoma = test system: UACC-62 melanoma
# UO-31 renal = test system: UO-31 renal
smiles,measurement,setting,value
OCc1cc2ccccc2c2c3c(ccc12)OCO3,GI50,786-0 renal,42.3 µM
same,TGI,786-0 renal,203 µM
same,GI50,A498 renal,13.1 µM
same,TGI,A498 renal,39.5 µM
same,GI50,A549 NSCLC,30.3 µM
same,TGI,A549 NSCLC,126 µM
same,GI50,ACHN renal,32.1 µM
same,TGI,ACHN renal,141 µM
same,GI50,BT-549 breast,27.1 µM
same,TGI,BT-549 breast,76.3 µM
same,GI50,CAKI-1 renal,29.3 µM
same,TGI,CAKI-1 renal,188 µM
same,GI50,COLO 205 colon,18.8 µM
same,TGI,COLO 205 colon,37.4 µM
same,GI50,DU-145 prostate,44 µM
same,TGI,DU-145 prostate,170 µM
same,GI50,HCC-2998 colon,37.8 µM
same,TGI,HCC-2998 colon,232 µM
same,GI50,HCT-116 colon,30.6 µM
same,TGI,HCT-116 colon,149 µM
same,GI50,HCT-15 colon,32.5 µM
same,GI50,HL-60(TB) leukemia,23.7 µM
same,TGI,HL-60(TB) leukemia,66.2 µM
same,GI50,HOP-62 NSCLC,31.6 µM
same,TGI,HOP-62 NSCLC,131 µM
same,GI50,HOP-92 NSCLC,14.7 µM
same,TGI,HOP-92 NSCLC,58.2 µM
same,GI50,HS 578T breast,29.8 µM
same,TGI,HS 578T breast,144 µM
same,GI50,HT29 colon,27.5 µM
same,TGI,HT29 colon,78.6 µM
same,GI50,IGROV1 ovarian,33.6 µM
same,TGI,IGROV1 ovarian,111 µM
same,GI50,K-562 leukemia,40 µM
same,GI50,KM12 colon,35 µM
same,TGI,KM12 colon,137 µM
same,GI50,LOX IMVI melanoma,35.7 µM
same,TGI,LOX IMVI melanoma,118 µM
same,GI50,M14 melanoma,41.2 µM
same,TGI,M14 melanoma,169 µM
same,GI50,MALME-3M melanoma,48.1 µM
same,TGI,MALME-3M melanoma,209 µM
same,GI50,MCF7 breast,26.5 µM
same,TGI,MCF7 breast,125 µM
same,GI50,MDA-MB-231 breast,29.1 µM
same,TGI,MDA-MB-231 breast,175 µM
same,GI50,MDA-MB-435,39.3 µM
same,TGI,MDA-MB-435,160 µM
same,GI50,MOLT-4 leukemia,28.5 µM
same,TGI,MOLT-4 leukemia,82.3 µM
same,GI50,NCI-H226 lung,23.7 µM
same,TGI,NCI-H226 lung,163 µM
same,GI50,NCI-H23 lung,34.1 µM
same,TGI,NCI-H23 lung,221 µM
same,GI50,NCI-H460 lung,28.5 µM
same,TGI,NCI-H460 lung,752 µM
same,GI50,NCI/ADR-RES ovarian,29.6 µM
same,TGI,NCI/ADR-RES ovarian,126 µM
same,GI50,OVCAR-3 ovarian,36.4 µM
same,TGI,OVCAR-3 ovarian,168 µM
same,GI50,OVCAR-4 ovarian,30.6 µM
same,TGI,OVCAR-4 ovarian,603 µM
same,GI50,OVCAR-5 ovarian,40.9 µM
same,TGI,OVCAR-5 ovarian,207 µM
same,GI50,OVCAR-8 ovarian,29.2 µM
same,TGI,OVCAR-8 ovarian,199 µM
same,GI50,PC-3 prostate,25.4 µM
same,TGI,PC-3 prostate,140 µM
same,GI50,RPMI-8226 leukemia,26.2 µM
same,TGI,RPMI-8226 leukemia,94.4 µM
same,GI50,SF-268 CNS,33.8 µM
same,TGI,SF-268 CNS,117 µM
same,GI50,SF-295 CNS,33.8 µM
same,TGI,SF-295 CNS,154 µM
same,GI50,SF-539 CNS,23.2 µM
same,TGI,SF-539 CNS,87 µM
same,GI50,SK-MEL-2 melanoma,32.2 µM
same,TGI,SK-MEL-2 melanoma,84.9 µM
same,GI50,SK-MEL-28 melanoma,35.3 µM
same,TGI,SK-MEL-28 melanoma,350 µM
same,GI50,SK-MEL-5 melanoma,20.6 µM
same,TGI,SK-MEL-5 melanoma,59.9 µM
same,GI50,SK-OV-3 ovarian,32 µM
same,TGI,SK-OV-3 ovarian,96.6 µM
same,GI50,SN12C renal,29.1 µM
same,TGI,SN12C renal,141 µM
same,GI50,SNB-19 CNS,35.6 µM
same,TGI,SNB-19 CNS,286 µM
same,GI50,SNB-75 CNS,18.4 µM
same,TGI,SNB-75 CNS,64 µM
same,GI50,SR leukemia,28.4 µM
same,TGI,SR leukemia,76.8 µM
same,GI50,SW-620 colon,29 µM
same,TGI,SW-620 colon,118 µM
same,GI50,T-47D breast,24.1 µM
same,TGI,T-47D breast,81.5 µM
same,GI50,TK-10 renal,31.2 µM
same,TGI,TK-10 renal,79.1 µM
same,GI50,U251 CNS,28.6 µM
same,TGI,U251 CNS,141 µM
same,GI50,UACC-257 melanoma,28.1 µM
same,TGI,UACC-257 melanoma,82.3 µM
same,GI50,UACC-62 melanoma,21.5 µM
same,TGI,UACC-62 melanoma,74.2 µM
same,GI50,UO-31 renal,26.3 µM
same,TGI,UO-31 renal,108 µM
